Assay results published in US10597388B2, “Pyridazinone herbicides” (FMC CORPORATION, priority 2014, dated 2020).

How the values were obtained:
Type in all cases: in vivo
[1] = tested on: barnyardgrass (Echinochloa crus-galli); assay: Test A greenhouse herbicide test, pre- and postemergence
Source text: (§1) Seeds of plant species selected from barnyardgrass (Echinochloa crus-galli), kochia (Kochia scoparia), ragweed (common ragweed, Ambrosia elatior), ryegrass, Italian (Italian ryegrass, Lolium multiflorum), crabgrass, large (large crabgrass, Digitaria sanguinalis), foxtail, giant (giant foxtail, Setaria faberii), momingglory (Ipomoea spp.), pigweed (Amaranthus retroflexus), velvetleaf (Abutilon theophrasti), wheat (Triticum aestivum), and corn (Zea mays) were planted into a blend of loam soil and sand and treated preemergence with a directed soil spray using test chemicals formulated in a non-phytotoxic solvent mixture which included a surfactant.
(§2) At the same time, plants selected from these crop and weed species and also blackgrass (Alopecurus myosuroides), and galium (catchweed bedstraw, Galium aparine) were planted in pots containing the same blend of loam soil and sand and treated with postemergence applications of test chemicals formulated in the same manner. Plants ranged in height from 2 to 10 cm and were in the one- to two-leaf stage for the postemergence treatment. Treated plants and untreated controls were maintained in a greenhouse for approximately 10 d, after which time all treated plants were compared to untreated controls and visually evaluated for injury. Plant response ratings, summarized in Table A, are based on a 0 to 100 scale where 0 is no effect and 100 is complete control. A dash (-) response means no test result.

[2] = tested on: corn (Zea mays); assay: as above; conditions: Postemergence
Source text: as §1, §2

[3] = tested on: foxtail, giant (giant foxtail, Setaria faberii); assay: as above
Source text: as §1, §2

[4] = tested on: kochia (Kochia scoparia); assay: as above
Source text: as §1, §2

[5] = tested on: pigweed (Amaranthus retroflexus); assay: as above
Source text: as §1, §2

[6] = tested on: ragweed (common ragweed, Ambrosia elatior); assay: as above
Source text: as §1, §2

[7] = tested on: ryegrass, Italian (Italian ryegrass, Lolium multiflorum); assay: as above
Source text: as §1, §2

[8] = tested on: wheat (Triticum aestivum); assay: as above; conditions: Postemergence
Source text: as §1, §2

[9] = tested on: blackgrass (Alopecurus myosuroides); assay: Test A greenhouse herbicide test, postemergence
Procedure, shortened: (§3)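 Scores are visual injury ratings from 0 (no effect) to 100 (complete control) versus untreated plants, taken roughly 10 d after treatment in the greenhouse. Treatment was postemergence, on one- to two-leaf plants 2–10 cm high growing in a loam soil/sand mix.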

[10] = tested on: galium (catchweed bedstraw, Galium aparine); assay: Test A greenhouse herbicide test, postemergence
Procedure, shortened: as §3

[11] = tested on: barnyardgrass (Echinochloa crus-galli); assay: Test B flooded paddy test; conditions: 250 g ai/ha, Flood; visual rating on scale of 0 to 100 where 0 is no effect and 100 is complete control; 13 to 15 d after treatment
Procedure, shortened: (§4)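 Ratings use a 0-100 visual scale, where 100 is complete control, and compare treated plants with controls after 13 to 15 d of greenhouse growth. Compound went straight into paddy water kept 3 cm over the soil surface, applied to seedlings at the 2-leaf stage.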

[12] = tested on: ducksalad (Heteranthera limosa); assay: Test B flooded paddy test; conditions: 250 g ai/ha, Flood; visual rating on scale of 0 to 100 where 0 is no effect and 100 is complete control; 13 to 15 d after treatment
Procedure, shortened: as §4

[13] = tested on: rice (Oryza sativa); assay: Test B flooded paddy test; conditions: 250 g ai/ha, Flood; visual rating on scale of 0 to 100 where 0 is no effect and 100 is complete control; 13 to 15 d after treatment
Procedure, shortened: as §4

[14] = tested on: sedge, umbrella (small-flower umbrella sedge, Cyperus difformis); assay: Test B flooded paddy test; conditions: 250 g ai/ha, Flood; visual rating on scale of 0 to 100 where 0 is no effect and 100 is complete control; 13 to 15 d after treatment
Procedure, shortened: as §4

[15] = Postemergence, 125 g ai/ha, 0 to 100 scale where 0 is no effect and 100 is complete control
[16] = Postemergence, 500 g ai/ha, visual rating after approx. 10 d, 0 to 100 scale (0 no effect, 100 complete control)
[17] = Preemergence, 125 g ai/ha, 0 to 100 scale where 0 is no effect and 100 is complete control
[18] = Preemergence, 500 g ai/ha, 0 to 100 scale where 0 is no effect and 100 is complete control
[19] = 125 g ai/ha, 0 to 100 scale where 0 is no effect and 100 is complete control
[20] = 500 g ai/ha, visual rating after approx. 10 d, 0 to 100 scale (0 no effect, 100 complete control)
[21] = Postemergence, 125 g ai/ha, 0 to 100 scale, 0 no effect, 100 complete control
[22] = Preemergence, 125 g ai/ha, visual injury rating, 0 to 100 scale (0 no effect, 100 complete control), approx. 10 d
[23] = 125 g ai/ha, 0 to 100 scale, 0 no effect, 100 complete control
[24] = Preemergence, second run of lines under the 500 g ai/ha head, rate not given, 0 to 100 scale

Compound | Plant response rating, Barnyardgrass [1, 16] | Plant response rating, Barnyardgrass [1, 18] | Plant response rating, Corn [2, 20] | Plant response rating, Foxtail, Giant [3, 16] | Plant response rating, Foxtail, Giant [3, 18] | Plant response rating, Kochia [4, 16] | Plant response rating, Kochia [4, 18] | Plant response rating, Pigweed [5, 16] | Plant response rating, Pigweed [5, 18] | Plant response rating, Ragweed [6, 16] | Plant response rating, Ragweed [6, 18] | Plant response rating, Ryegrass, Italian [7, 16] | Plant response rating, Ryegrass, Italian [7, 18] | Plant response rating, Wheat [8, 20] | Plant response rating, Blackgrass [9, 20] | Plant response rating, Galium [10, 20] | Plant response rating, Barnyardgrass [11] | Plant response rating, Ducksalad [12] | Plant response rating, Rice [13] | Plant response rating, Sedge, Umbrella [14] | further results
CCc1nn(C)c(=O)c(-c2c(C)oc3ccccc23)c1O [Compound 117] | 40 | 50 | 0 | 20 | 30 | 10 | 0 | 20 | 30 | 0 | 0 | 0 | 0 | 0 | 0 | 0 | 0 | 0 | 0 | 0 | Plant response rating, Barnyardgrass [1, 15]: 0; Barnyardgrass plant response rating [1, 17]: 0; Plant response rating, Corn [2, 19]: 0; Plant response rating, Foxtail, Giant [3, 15]: 0; Foxtail, Giant plant response rating [3, 17]: 0; Plant response rating, Kochia [4, 15]: 0; Kochia plant response rating [4, 17]: 0; Plant response rating, Pigweed [5, 15]: 0; Pigweed plant response rating [5, 17]: 0; Plant response rating, Ragweed [6, 15]: 0; Ragweed plant response rating [6, 17]: 0; Plant response rating, Ryegrass, Italian [7, 15]: 0; Ryegrass, Italian plant response rating [7, 17]: 0; Plant response rating, Wheat [8, 19]: 0; Plant response rating, Blackgrass [9, 19]: 0; Plant response rating, Galium [10, 19]: 0
Cc1n[nH]c(=O)c(-c2cccc3ccccc23)c1O [Compound 169] | 20 | 30 | 30 | 30 | 30 | 100 | 90 | 70 | 100 | 80 | 20 | 100 | 100 | 30 | 20 | 70 | 0 | 0 | 0 | 0 | Plant response rating, Barnyardgrass [1, 21]: 0; Plant response rating, Barnyardgrass [1, 22]: 0; Plant response rating, Corn [2, 23]: 0; Plant response rating, Foxtail, Giant [3, 21]: 0; Plant response rating, Foxtail, Giant [3, 22]: 0; Plant response rating, Kochia [4, 21]: 40; Plant response rating, Kochia [4, 22]: 20; Plant response rating, Pigweed [5, 21]: 20; Plant response rating, Pigweed [5, 22]: 50; Plant response rating, Ragweed [6, 21]: 0; Plant response rating, Ragweed [6, 22]: 0; Plant response rating, Ryegrass, Italian [7, 21]: 70; Plant response rating, Ryegrass, Italian [7, 22]: 80; Plant response rating, Wheat [8, 23]: 0; Plant response rating, Blackgrass [9, 23]: 10; Plant response rating, Galium [10, 23]: 30
Cc1cc(C)c2sc(C)c(-c3c(OCC#N)c(C)nn(C)c3=O)c2c1 [Compound 188] | 20 | 30 | 0 | 80 | 90 | 20 | 20 | 80 | 90 | 50 | 30 | 80 | 80 | 0 | 60 | 90 | 0 | 0 | 0 | 0 | Plant response rating, Barnyardgrass [1, 21]: 10; Plant response rating, Barnyardgrass [1, 24]: 10; Plant response rating, Corn [2, 23]: 0; Plant response rating, Foxtail, Giant [3, 21]: 20; Plant response rating, Foxtail, Giant [3, 24]: 10; Plant response rating, Kochia [4, 21]: 10; Plant response rating, Kochia [4, 24]: 20; Plant response rating, Pigweed [5, 21]: 50; Plant response rating, Pigweed [5, 24]: 60; Plant response rating, Ragweed [6, 21]: 20; Plant response rating, Ragweed [6, 24]: 10; Plant response rating, Ryegrass, Italian [7, 21]: 20; Plant response rating, Ryegrass, Italian [7, 24]: 20; Plant response rating, Wheat [8, 23]: 0; Plant response rating, Blackgrass [9, 23]: 10; Plant response rating, Galium [10, 23]: 70
CC(=O)Oc1ccc2cccc(-c3c(OC(C)=O)c(C)nn(C)c3=O)c2c1 [Compound 124] | 30 | 0 | 0 | 0 | 0 | 0 | 20 | 0 | 0 | 0 | 0 | 0 | 30 | 0 | 0 | 30 | 0 | 0 | 0 | 0 | Plant response rating, Barnyardgrass [1, 15]: 20; Barnyardgrass plant response rating [1, 17]: 0; Plant response rating, Corn [2, 19]: 0; Plant response rating, Foxtail, Giant [3, 15]: 0; Foxtail, Giant plant response rating [3, 17]: 0; Plant response rating, Kochia [4, 15]: 0; Kochia plant response rating [4, 17]: 0; Plant response rating, Pigweed [5, 15]: 0; Pigweed plant response rating [5, 17]: 0; Plant response rating, Ragweed [6, 15]: 0; Ragweed plant response rating [6, 17]: 0; Plant response rating, Ryegrass, Italian [7, 15]: 0; Ryegrass, Italian plant response rating [7, 17]: 0; Plant response rating, Wheat [8, 19]: 0; Plant response rating, Blackgrass [9, 19]: 0; Plant response rating, Galium [10, 19]: 0
